Results published in PubChem BioAssay (NCI).
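Protocol summary: plate cells (96-well), add compound at 5 concentrations, incubate 48 h, interpolate endpoints linearly. TGI: total growth inhibition.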

Assays:
Assay in all cases: DTP human tumour cell line panel, 48 h
[1] = system: MALME-3M melanoma
[2] = system: A498 renal
[3] = system: M19-MEL melanoma
[4] = system: DMS 273 small cell lung
[5] = system: SNB-78 CNS
[6] = system: KM20L2 colon
[7] = system: NCI-H226 lung
[8] = system: DMS 114 small cell lung
[9] = system: RPMI-8226 leukemia
[10] = system: LOX IMVI melanoma
[11] = system: SW-620 colon
[12] = system: NCI/ADR-RES ovarian
[13] = system: PC-3 prostate

How did the TGI [1] turn out when C[n+]1c2ccccc2c(/C=N\NS(=O)(=O)c2ccc(O)c(C(=O)O)c2)c2ccccc21 was run?
Its TGI is over 100 µM.

And the TGI [2]?
The TGI was over 100 µM.

And the TGI [3]?
Its TGI is over 100 µM.

What about the TGI [4] of the same compound?
Its TGI is over 100 µM.

And the TGI [5]?
The TGI was over 100 µM.

What about the TGI [6] of the same compound?
The TGI was over 100 µM.

What about the TGI [7] of the same compound?
Its TGI is over 100 µM.

And the TGI [8]?
The TGI was over 100 µM.

What about the TGI [9] of the same compound?
The TGI was over 100 µM.

What about the TGI [10] of the same compound?
Its TGI is over 100 µM.

And the TGI [11]?
The TGI was over 100 µM.

With CNC(=O)C(C)C1CCC2(C)C=CC(=O)C(C)=C2C1O (stereo unspecified) as the compound, how does the TGI [2] read?
Its TGI is over 100 µM.

And the TGI [3]?
Its TGI is over 100 µM.

And the TGI [4]?
The TGI was over 58.1 µM.

What about the TGI [5] of the same compound?
The TGI was over 100 µM.

And the TGI [6]?
Its TGI is over 100 µM.

What about the TGI [7] of the same compound?
The TGI was over 100 µM.

What about the TGI [12] of the same compound?
The TGI was over 71.7 µM.

What about the TGI [8] of the same compound?
The TGI was over 100 µM.

What about the TGI [9] of the same compound?
The TGI was over 100 µM.

What about the TGI [10] of the same compound?
Its TGI is over 100 µM.

And the TGI [11]?
The TGI was over 100 µM.

Which TGI [1] does the source give for O=C1c2ccccc2C2C1N2C(=O)C(F)(F)F (stereo unspecified) here?
The TGI was over 100 µM.

What about the TGI [2] of the same compound?
The TGI was over 100 µM.

What about the TGI [3] of the same compound?
The TGI was over 100 µM.

What about the TGI [4] of the same compound?
The TGI was over 100 µM.

What about the TGI [6] of the same compound?
Its TGI is over 100 µM.

And the TGI [7]?
The TGI was over 100 µM.

What about the TGI [8] of the same compound?
The TGI was over 100 µM.

And the TGI [9]?
The TGI was over 100 µM.

And the TGI [10]?
Its TGI is over 100 µM.

And the TGI [11]?
Its TGI is over 100 µM.

Which TGI [2] does the source give for CCN(CC)CCC(=O)Nc1ccc2c(c1)C(=O)c1ccc(NC(=O)CCN(CC)CC)cc1C2=O here?
The TGI was 17.8 µM.

And the TGI [3]?
Its TGI is over 100 µM.

And the TGI [4]?
The TGI was 3.82 µM.

And the TGI [5]?
The TGI was 48.3 µM.

And the TGI [6]?
The TGI was 28 µM.

What about the TGI [7] of the same compound?
Its TGI is 7.8 µM.

And the TGI [8]?
The TGI was 13 µM.

And the TGI [9]?
Its TGI is 19.9 µM.

And the TGI [10]?
The TGI was 6.19 µM.

And the TGI [11]?
The TGI was 6.93 µM.

What does the source list for CC(N)Cc1ccc(C(=O)Cl)cc1 (stereo unspecified)?
TGI [1]: > 100 µM; TGI [2]: > 100 µM; TGI [3]: > 100 µM; TGI [6]: > 100 µM; TGI [8]: > 100 µM; TGI [9]: > 100 µM; TGI [10]: > 100 µM; TGI [11]: > 100 µM

Which results are given for O=C1CCC23CC(C=CC=C12)n1c(=O)n(-c2ccccc2)c(=O)n13 (stereo unspecified)?
TGI [1]: > 100 µM; TGI [2]: > 100 µM; TGI [3]: > 100 µM; TGI [4]: > 100 µM; TGI [5]: > 100 µM; TGI [7]: > 100 µM; TGI [12]: > 81.2 µM; TGI [8]: > 100 µM; TGI [9]: > 100 µM; TGI [10]: > 100 µM; TGI [11]: > 100 µM

What does the source list for O=C(Nc1ccc(C2=NCCN2)cc1)c1cncc(C(=O)Nc2ccc(C3=NCCN3)cc2)c1?
TGI [1]: > 100 µM; TGI [2]: > 100 µM; TGI [3]: > 100 µM; TGI [4]: > 100 µM; TGI [5]: > 100 µM; TGI [6]: > 100 µM; TGI [7]: > 100 µM; TGI [12]: > 100 µM; TGI [8]: > 100 µM; TGI [9]: > 100 µM; TGI [10]: > 100 µM; TGI [11]: > 100 µM

How did the TGI [1] turn out when [N-]=[N+]=Nc1cc(=O)oc2ccccc12 was run?
The TGI was over 100 µM.

And the TGI [3]?
Its TGI is over 100 µM.

And the TGI [4]?
The TGI was over 100 µM.

And the TGI [7]?
Its TGI is over 100 µM.

What about the TGI [8] of the same compound?
Its TGI is over 100 µM.

What about the TGI [9] of the same compound?
Its TGI is over 100 µM.

What about the TGI [10] of the same compound?
The TGI was over 100 µM.

And the TGI [11]?
The TGI was over 100 µM.

Which results are given for CCC12C=CCN3CCC4(C(=C(C(=O)OC)[C@@H]1O)Nc1ccccc14)C32 (stereo partly specified)?
TGI [1]: 3.43 µM; TGI [2]: 5.28 µM; TGI [3]: 3.61 µM; TGI [4]: 3.37 µM; TGI [5]: 7.35 µM; TGI [6]: 3.54 µM; TGI [7]: 2.71 µM; TGI [8]: 3.24 µM; TGI [9]: 6 µM; TGI [10]: 3.26 µM; TGI [11]: 3.3 µM

For Cc1cccc2c(=O)cc(-c3ccccc3)[nH]c12, which TGI [1] is on record?
Its TGI is over 100 µM.

What about the TGI [2] of the same compound?
The TGI was 36 µM.

What about the TGI [3] of the same compound?
Its TGI is over 100 µM.

What about the TGI [4] of the same compound?
Its TGI is over 100 µM.

What about the TGI [6] of the same compound?
Its TGI is 19.4 µM.

What about the TGI [7] of the same compound?
The TGI was over 100 µM.

What about the TGI [8] of the same compound?
The TGI was over 100 µM.

What about the TGI [9] of the same compound?
The TGI was over 100 µM.

And the TGI [10]?
The TGI was over 100 µM.

And the TGI [11]?
The TGI was over 100 µM.

With COc1cc(/C=C/C(=N\NS(=O)(=O)c2ccc(C)cc2)c2sc(NNC(C)=O)nc2C)ccc1O as the compound, how does the TGI [1] read?
The TGI was over 100 µM.

And the TGI [2]?
Its TGI is over 100 µM.

What about the TGI [13] of the same compound?
The TGI was over 100 µM.

And the TGI [7]?
Its TGI is over 100 µM.

What about the TGI [12] of the same compound?
The TGI was over 100 µM.

And the TGI [9]?
The TGI was over 100 µM.

And the TGI [10]?
The TGI was over 100 µM.

And the TGI [11]?
Its TGI is over 100 µM.

CC(C)/C(Cl)=N\OC(=O)Nc1ccc(S(N)(=O)=O)cc1 was tested. Which TGI [1] did it give?
The TGI was 10.1 µM.

What about the TGI [2] of the same compound?
Its TGI is 31.7 µM.

What about the TGI [13] of the same compound?
Its TGI is 32.6 µM.

And the TGI [7]?
The TGI was 45.5 µM.

What about the TGI [12] of the same compound?
Its TGI is 40.5 µM.

What about the TGI [9] of the same compound?
Its TGI is 4.97 µM.

And the TGI [10]?
The TGI was 7 µM.

What about the TGI [11] of the same compound?
The TGI was 3.41 µM.

Which TGI [1] does the source give for O=c1[nH][nH]c(=O)n1Cc1ccccc1Cn1c(=O)[nH][nH]c1=O here?
Its TGI is over 100 µM.

And the TGI [2]?
The TGI was over 100 µM.

And the TGI [13]?
The TGI was over 100 µM.

What about the TGI [7] of the same compound?
Its TGI is over 100 µM.

And the TGI [12]?
Its TGI is over 100 µM.

What about the TGI [9] of the same compound?
Its TGI is over 100 µM.

And the TGI [10]?
The TGI was over 100 µM.

What about the TGI [11] of the same compound?
The TGI was over 100 µM.

CC(=O)Nc1ccc(-c2nnc(SCC(=O)Nc3ccc([N+](=O)[O-])cc3)o2)cc1 was tested. Which TGI [1] did it give?
Its TGI is 27 µM.

What about the TGI [3] of the same compound?
The TGI was 26.3 µM.

And the TGI [4]?
Its TGI is 22.6 µM.

What about the TGI [5] of the same compound?
Its TGI is 34.3 µM.

And the TGI [6]?
The TGI was 28.4 µM.

What about the TGI [7] of the same compound?
Its TGI is 29.5 µM.

What about the TGI [8] of the same compound?
The TGI was 14.6 µM.

What about the TGI [9] of the same compound?
The TGI was over 100 µM.

What about the TGI [10] of the same compound?
The TGI was 18.1 µM.

And the TGI [11]?
Its TGI is 29.7 µM.
